“Also recorded” adds a separate entry of the source. Where a name gives a salt, the structure may show the parent alone. Read-outs that look alike come from different tables or passages of the source.
Experiments:
[1] = tested on: streptozocin-induced static allodynia; experiment: streptozocin-induced static allodynia (von Frey hairs) in diabetic rats; type: in vivo, rat
Description: Male Sprague Dawley rats (250–300 g), obtained from Bantin and Kingman, (Hull, U.K.) were housed in groups of 3. All animals were kept under a 12 h light/dark cycle (lights on at 07 h 00 min) with food and water ad libitum. All experiments were carried out by an observer blind to drug treatments.
Diabetes was induced in rats by a single i.p. injection of streptozocin (50 mg/kg) as described previously (Courteix et al., 1993).
(§1) Mechanical hypersensitivity was measured using Semmes-Weinstein von Frey hairs (Stoelting, Ill., U.S.A.). Animals were placed into wire mesh bottom cages allowing access to the underside of their paws. Animals were habituated to this environment prior to the start of the experiment. Mechanical hypersensitivity was tested by touching the plantar surface of the animals right hind paw with von Frey hairs in ascending order of force (0.7, 1.2, 1.5, 2, 3.6, 5.5, 8.5, 11.8, 15.1 and 29 g) for up to 6 sec. Once a withdrawal response was established, the paw was re-tested, starting with the next descending von Frey hair until no response occurred. The highest force of 29 g lifted the paw as well as eliciting a response, thus represented the cut off point. The lowest amount of force required to elicit a response was recorded as the paw withdrawal threshold (PWT) in grams.
PD 198306 [N-Cyclopropylmethoxy-3,4,5-trifluoro-2-(4-iodo-2-methyl-phenylamino)-benzamide] and Cl-1008 (pregabalin) were synthesized at Parke-Davis (Ann Arbor, Mich., USA). PD 198306 was suspended in cremophor:ethanol:water (1:1:8) vehicle. Pregabalin was dissolved in water. Both compounds were administered orally. Streptozocin (Aldrich, UK) was dissolved in 0.9% w/v NaCl and administered intraperitoneally. Drug administrations were made in a volume of 1 ml/kg.
The static allodynia data were analysed using a Kruskall-Wallis ANOVA for non-parametric results, followed when significant by Mann-Whitney's t test.
Static allodynia was assessed with von Frey hairs, before (baseline, BL) and 1 h after oral administration of PD 198306 (30 mg/kg, p.o.), vehicle (cremophor:ethanol:water, 1:1:8) or pregabalin (30 mg/kg, p.o.) (test). Animals were administered again the same compounds on the following day, both in the morning and the afternoon. Static allodynia was assessed only before and 1 h after the afternoon administration, in order to minimise the habituation of the animals to the testing conditions. Animals treated with pregabalin received water in the morning administration, in order to avoid the potential development of tolerance to the compound with repeated administration.
(§2) Male Sprague Dawley rats (250–300 g), obtained from Charles River, Margate, U.K.) were housed in groups of 3–6. All animals were kept under a 12 h light/dark cycle (lights on at 07 h 00 min) with food and water ad libitum. All experiments were carried out by an observer blind to drug treatments.
(§3) PD 198306 and pregabalin were administered intrathecally in a volume of 10 μl using a 100 μl Hamilton syringe by exposing the spine of the rats under brief isoflurane anaesthesia. Injections were made into the intrathecal space between lumbar region 5–6 with a 10 mm long 27 gauge needle. Penetrations were judged successful if there was a tail flick response. The wound was sealed with an autoclip and rats appeared fully awake within 2–3 min following injection.
Static allodynia was assessed with von Frey hairs, before (baseline, BL) and 0.5 h, 1 h and 2 h after intrathecal or intraplantar administration of PD 198306 (1–30 μg, i.t.), vehicle (cremophor:ethanol:water, 1:1:8) or pregabalin (10 μg, i.t.). For oral administration experiments, static allodynia was assessed with von Frey hairs, before (baseline, BL) and 1 h after oral administration of PD 198306 (3–30 mg/kg, p.o.), vehicle (cremophor:ethanol:water, 1:1:8) or pregabalin (30 mg/kg, p.o.). Animals were administered again the same compounds on the following day, both in the morning and the afternoon. […]

[2] = tested on: CCI-induced static allodynia; experiment: chronic constriction injury (CCI)-induced static allodynia (von Frey hairs) in rats; type: in vivo, rat
Description: as §2
Animals were anaesthetised with 2% isoflurane 1:4 O2/N2O mixture maintained during surgery via a nose cone. The sciatic nerve was ligated as previously described by Bennett and Xie, 1988. Animals were placed on a homeothermic blanket for the duration of the procedure. After surgical preparation the common sciatic nerve was exposed at the middle of the thigh by blunt dissection through biceps femoris. Proximal to the sciatic trifurcation, about 7 mm of nerve was freed of adhering tissue and 4 ligatures (4-0 silk) were tied loosely around it with about 1 mm spacing. The incision was closed in layers and the wound treated with topical antibiotics.
as §3, §1
Static allodynia was assessed with von Frey hairs, before (baseline, BL) and 0.5 h, 1 h and 2 h after intrathecal or intraplantar administration of PD 198306 (1–30 μg, i.t.), vehicle (cremophor:ethanol:water, 1:1:8) or pregabalin (10 μg, i.t.). For oral administration experiments, static allodynia was assessed with von Frey hairs, before (baseline, BL) and 1 h after oral administration of PD 198306 (3–30 mg/kg, p.o.), vehicle (cremophor:ethanol:water, 1:1:8) or pregabalin (30 mg/kg, p.o.). Animals were administered again the same compounds on the following day, both in the morning and the afternoon. Static allodynia was assessed before and 1 h after the morning administration. In the afternoon static allodynia was assessed before, 1 h, 2 h and 3 h after administration for streptozocin treated animals. CCI animals were assessed before, 1 h and 2 h after administration
PD 198306 and pregabalin were synthesised at Parke-Davis (Ann Arbor, Mich., USA). PD 198306 was suspended in cremophor:ethanol:water (1:1:8) vehicle. Pregabalin was dissolved in water. Both compounds were administered orally, intrathecally or intraplantar in volumes of 1 ml/kg, 10 μl and 100 μl respectively. Streptozocin (Aldrich, UK) was dissolved in 0.9% w/v NaCl and administered intraperitoneally in a volume of 1 ml/kg.
Data were analysed using a Kruskall-Wallis ANOVA for non-parametric results, followed when significant by Mann-Whitney's t test vs vehicle group.
The animals and methods for developing chronic constriction injury in the rat, injecting test compounds, and evaluation of static allodynia were according to Example 2 above. […]

[3] = tested on: MEK; experiment: binding affinity of MEK inhibitors; settings: affinity of the MEK inhibitors of Biological Example 3
[4] = tested on: CCI-induced static allodynia; experiment: chronic constriction injury (CCI)-induced static allodynia (von Frey hairs) in rats; type: in vivo, rat; settings: Biological Example 3; intrathecal administration 30 μg
[5] = tested on: colon 26 cells; experiment: colon 26 cells IC50; type: cell-based; settings: Mus musculus
[6] = Biological Example 1, single administration 30 mg/kg p.o., 1 h after administration
[7] = Biological Example 2, single administration p.o. (pregabalin 30 mg/kg, PD 198306 3–30 mg/kg), 1 h after administration
[8] = Biological Example 3, intrathecal administration 30 μg
[9] = intraplantar administration 3 mg/100 μl
[10] = intrathecal administration 1–30 μg

With CC(C)C[C@H](CN)CC(=O)O [pregabalin] the “effect on streptozocin-induced static allodynia” value [1, 6] was “significantly blocked”, the “effect on streptozocin-induced static allodynia” value [1, 7] was “significantly blocked” and the “effect on CCI-induced static allodynia” value ([2]; single administration 30 mg/kg p.o., 1 h after administration) was “significantly blocked”.

In the case of O=C(NOCC1CC1)c1ccc(F)c(F)c1Nc1ccc(I)cc1Cl [PD 184352], the affinity [3] is reported as 2 nM, the “magnitude of the antiallodynic effect compared with 100 μg of pregabalin, CCI model” value [4] is reported as “similar” and the “effect on static allodynia, CCI model” value [2, 8] is reported as “blocked the maintenance of static allodynia”. For the same compound, the “time for which the antiallodynic effect was evident post-injection, CCI model” value [2, 8] was 30 min.

With Cc1cc(I)ccc1Nc1c(C(=O)NOCC2CC2)cc2nc[nH]c2c1F [PD 254552, 7-fluoro-6-(4-iodo-2-methyl-phenylamino)-1H-benzoimidazole-5-carboxylic acid cyclopropylmethoxy-amide] the affinity [3] was 5 nM, the IC50 ([5]; read-out: colon 26 cells, 1 hour pretreatment, IC50) was 20 nM and the “effect on static allodynia, CCI model” value [2, 8] was “blocked the maintenance of static allodynia”. The “time for which the antiallodynic effect was evident post-injection, CCI model” value [2, 8] was 30 min.

Work on Cc1cc(I)ccc1Nc1c(C(=O)NOCC2CC2)cc2nc[nH]c2c1F (as salt: salt) [PD 254552, 7-fluoro-6-(4-iodo-2-methyl-phenylamino)-1H-benzoimidazole-5-carboxylic acid cyclopropylmethoxy-amide] yielded a melting point of 168 to 172 °C.

In the case of Cc1cc(I)ccc1Nc1c(C(=O)O)cc2nc[nH]c2c1F [PD 205293, 7-fluoro-6-(4-iodo-2-methyl-phenylamino)-1H-benzoimidazole-5-carboxylic acid], the melting point is reported as 247 to 248 °C (dec.) and the IC50 ([5]; read-out: colon 26 cells, IC50) is reported as > 10000 nM.

For Cc1cc(I)ccc1Nc1c(C(=O)NOCC2CC2)cc(F)c(F)c1F [PD 198306, N-Cyclopropylmethoxy-3,4,5-trifluoro-2-(4-iodo-2-methyl-phenylamino)-benzamide], the “effect on streptozocin-induced static allodynia” value ([1]; Biological Example 1, 30 mg/kg p.o., 1 h after the third administration (twice more on the following day)) was “significantly blocked”, the “persistence of the effect on streptozocin-induced static allodynia” value ([1]; Biological Example 1, 30 mg/kg p.o., day after the third administration) was “disappeared by the following day” and the “effect on streptozocin-induced static allodynia” value [1, 6] was “had no effect”. The “effect on streptozocin-induced static allodynia” value ([1]; Biological Example 2, PD 198306 30 mg/kg p.o., after the third administration (3 doses over two days), 30 mg/kg) was “significantly blocked; also recorded: transient effect”, the “effect on streptozocin-induced static allodynia” value [1, 7] was “had no effect” and the “effect on static allodynia, streptozocin model” value [1, 9] was “had no effect”. The “minimum effective dose (MED), static allodynia, streptozocin model” value ([1]; intrathecal administration) was 3 µg, the “effect on static allodynia, streptozocin model” value ([1]; intrathecal administration 30 μg) was “significantly blocked; also recorded: totally blocked” and the “effect on static allodynia, streptozocin model” value [1, 10] was “dose-dependently blocked”. The “effect on static allodynia, CCI model” value ([2]; Biological Example 2, intrathecal administration 30 μg) was “significantly blocked; also recorded: totally blocked”, the “effect on static allodynia, CCI model” value [2, 9] was “had no effect” and the “minimum effective dose (MED), static allodynia, CCI model” value ([2]; intrathecal administration) was 10 µg. The “effect on static allodynia, CCI model” value [2, 10] was “dose-dependently blocked” and the “effect on CCI-induced static allodynia” value ([2]; single or multiple administration 3–30 mg/kg p.o.) was “neither a single or multiple administration of PD 198306 (3–30 mg/kg, p.o) had any effect; also recorded: had no effect”.
